In the supplement of paper PMC4862054:
Where “and” joins values, the source holds several entries; their conditions need not be identical. Equal entries are not always repeated.

Tests used:
[1] = test system: BT-474; test: drug sensitivity score (DSS), CellTiter-Glo (DSS (AUC-based score)); higher = stronger drug effect (viability inhibition or cytotoxicity); extreme values may be limits of the assay; conditions: incubation time: 72 h
Summary of the method: (§1)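 Breast cancer cells were seeded into 384-well plates containing compound at 5 concentrations in 10-fold steps over a compound-specific 10,000-fold range and incubated 72 h. After CellTox Green and CellTiter-Glo readings, each plate was normalised to 0.1 % DMSO and a positive kill control. The drug sensitivity score rests on the area under the fitted dose-response curve.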

[2] = test system: CAL-120; test: as above; conditions: incubation time: 72 h
Summary of the method: as §1

[3] = test system: DU-4475; test: as above; conditions: incubation time: 72 h
Summary of the method: as §1

[4] = test system: HCC1937; test: as above; conditions: incubation time: 72 h
Summary of the method: as §1

[5] = test system: HDQ-P1; test: as above; conditions: incubation time: 72 h
Summary of the method: as §1

[6] = test system: Hs578T; test: as above; conditions: incubation time: 72 h
Summary of the method: as §1

[7] = test system: MDA-MB-231; test: as above; conditions: incubation time: 72 h
Summary of the method: as §1

[8] = test system: MDA-MB-453; test: as above; conditions: incubation time: 72 h
Summary of the method: as §1

[9] = test system: MDA-MB-468; test: as above; conditions: incubation time: 72 h
Summary of the method: as §1

[10] = test system: MFM-223; test: as above; conditions: incubation time: 72 h
Summary of the method: as §1

[11] = test system: SK-BR-3; test: as above; conditions: incubation time: 72 h
Summary of the method: as §1

[12] = test system: BT-474; test: normalised viability (% of control), CellTiter-Blue; higher = more viable cells (about 100 = DMSO control); conditions: 100 nM; incubation time: 72 h
Description: (§2)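 DSRT, CellTiter-Blue viability, 72 h incubation. Signal is normalised to DMSO and benzethonium chloride controls. Value is the normalised response at dose 3.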

[13] = test system: BT-549; test: as above; conditions: 100 nM; incubation time: 72 h
Description: as §2

[14] = test system: CAL-120; test: as above; conditions: 100 nM; incubation time: 72 h
Description: as §2

[15] = test system: CAL-148; test: as above; conditions: 10 nM; incubation time: 72 h
Description: as §2

[16] = test system: CAL-51; test: as above; conditions: 10 nM; incubation time: 72 h
Description: as §2

[17] = test system: CAL-85-1; test: as above; conditions: 10 nM; incubation time: 72 h
Description: as §2

[18] = test system: DU-4475; test: as above; conditions: 10 nM; incubation time: 72 h
Description: as §2

[19] = test system: HCC1143; test: as above; conditions: 100 nM; incubation time: 72 h
Description: as §2

[20] = test system: HCC1599; test: as above; conditions: 100 nM; incubation time: 72 h
Description: as §2

[21] = test system: HCC1937; test: as above; conditions: 100 nM; incubation time: 72 h
Description: as §2

[22] = test system: HDQ-P1; test: as above; conditions: 10 nM; incubation time: 72 h
Description: as §2

[23] = test system: Hs578T; test: as above; conditions: 100 nM; incubation time: 72 h
Description: as §2

[24] = test system: MDA-MB-231; test: as above; conditions: 100 nM; incubation time: 72 h
Description: as §2

[25] = test system: MDA-MB-436; test: as above; conditions: 100 nM; incubation time: 72 h
Description: as §2

[26] = test system: MDA-MB-453; test: as above; conditions: 10 nM; incubation time: 72 h
Description: as §2

[27] = test system: MDA-MB-468; test: as above; conditions: 100 nM; incubation time: 72 h
Description: as §2

[28] = test system: MFM-223; test: as above; conditions: 100 nM; incubation time: 72 h
Description: as §2

[29] = test system: SK-BR-3; test: as above; conditions: 100 nM; incubation time: 72 h
Description: as §2

| Structure (SMILES) | drug sensitivity score [1] | drug sensitivity score [2] | drug sensitivity score [3] | drug sensitivity score [4] | drug sensitivity score [5] | drug sensitivity score [6] | drug sensitivity score [7] | drug sensitivity score [8] | drug sensitivity score [9] | drug sensitivity score [10] | drug sensitivity score [11] | normalised viability [12] | normalised viability [13] | normalised viability [14] | normalised viability [15] | normalised viability [16] | normalised viability [17] | normalised viability [18] | normalised viability [19] | normalised viability [20] | normalised viability [21] | normalised viability [22] | normalised viability [23] | normalised viability [24] | normalised viability [25] | normalised viability [26] | normalised viability [27] | normalised viability [28] | normalised viability [29] |
| --- | --- | --- | --- | --- | --- | --- | --- | --- | --- | --- | --- | --- | --- | --- | --- | --- | --- | --- | --- | --- | --- | --- | --- | --- | --- | --- | --- | --- | --- |
| CCn1c(-c2nonc2N)nc2cnc(Oc3cccc(NC(=O)c4ccc(OCCN5CCOCC5)cc4)c3)cc21 | 5.28 | 6.49 | 0.276 | 0 | 1.87 | 6.04 | 3.83 | 0 | 0 | 0 | 4.64 |  |  |  |  |  |  |  |  |  |  |  |  |  |  |  |  |  |  |
| Cc1cc(Nc2cc(CN3CCOCC3)c3nc(C)c(Cc4ccc(Cl)cc4F)n3n2)n[nH]1 |  |  |  |  |  |  |  |  |  |  |  | 102% | 93.5% | 74.5% | 97.9% | 95% | 91.6% | 99.6% | 71.4% | 122% | 101% | 92.8% | 85.9% | 102% | 108% | 91.1% | 103% | 67.9% | 87.1% |
| N#Cc1ccc(COC[C@H]2O[C@@H](n3c(NCc4ccc(Cl)c(Cl)c4)nc4c(N)ncnc43)[C@H](O)[C@@H]2O)cc1 | 3.43 | 0 | 2.77 | 3.1 | 1.31 | 1.73 | 0 | 0 | 2.09 | 0.407 | 2.28 | 123% | 95.2% | 106% | 103% | 109% | 110% | 111% | 94.7% | 97.1% | 99.4% | 116% | 95.8% | 90.1% | 104% | 105% | 94.5% | 93.9% | 89.7% |
| COc1cc(O)c2c(c1)/C=C/C[C@H](O)[C@H](O)C(=O)/C=C\C[C@H](C)OC2=O [(5Z)-7-Oxozeaenol] | 7.43 | 4.12 | 20 | 5.41 | 7.51 | 5.42 | 9.42 | 1.38 | 9.6 | 5.76 | 2.34 |  |  |  |  |  |  |  |  |  |  |  |  |  |  |  |  |  |  |
| COc1cc(OC2CCN(C)CC2)ccc1Nc1ncc2c(n1)n(C1CCCC1)c(=O)n2C [AZ 3146] | 2.51 | 0.593 | 0 | 0 | 0 | 0 | 0 | 0 | 2.06 | 0 | 4.5 | 113% | 85% | 121% | 105% | 92.3% | 94.8% | 101% | 133% | 90.1% | 81.8% | 79.1% | 82% | 96.1% | 93.5% | 88.2% | 106% | 105% | 97.3% |
| CNC(=O)c1cccc(-c2ccc3c(N4CCOC[C@@H]4C)nc(N4CCOC[C@@H]4C)nc3n2)c1 [AZD2014] | 8.78 | 14.9 | 7.74 | 9.48 | 14.8 | 11.4 | 8.36 | 13.5 | 11.4 | 15.7 | 18.4 |  |  |  |  |  |  |  |  |  |  |  |  |  |  |  |  |  |  |
| CN(C)c1nc(N(C)C)nc(N(C)C)n1 [Altretamine] | 0 | 0 | 0 | 0 | 0 | 0 | 0 | 0 | 0 | 0 | 0 | 117% | 84.4% | 95.5% | 102% | 103% | 102% | 104% | 91.7% | 109% | 91.8% | 105% | 96.1% | 96.8% | 89.5% | 97.5% | 104% | 97.2% | 92.2% |
| COC(=O)c1ccc2c(c1)NC(=O)/C2=C(\Nc1ccc(N(C)C(=O)CN2CCN(C)CC2)cc1)c1ccccc1 [BIBF 1120] |  |  |  |  |  |  |  |  |  |  |  | 130% | 111% | 95.4% | 100% | 104% | 99.9% | 114% | 88.2% | 91.3% | 115% | 122% | 104% | 104% | 98.9% | 101% | 111% | 79.1% | 91.6% |
| Nc1cc(C(F)(F)F)c(-c2cc(N3CCOCC3)nc(N3CCOCC3)n2)cn1 [BKM-120] |  |  |  |  |  |  |  |  |  |  |  | 115% | 96.8% | 81.3% | 94.9% | 98.5% | 86.6% | 98.3% | 86.1% | 70.1% | 112% | 111% | 96.6% | 83.6% | 90.2% | 96% | 99.2% | 84% | 76.7% |
| O=C(/C=C/c1cccc(S(=O)(=O)Nc2ccccc2)c1)NO [Belinostat] | 14.9 | 13.1 | 15.9 | 7.92 | 8.05 | 11 | 14 | 20.4 | 14.7 | 13.9 | 18.3 | 90.4% | 91.2% | 66.3% | 91% | 105% | 89.7% | 109% | 96.6% | 82.8% | 92.4% | 121% | 70.2% | 93.7% | 95.3% | 95.8% | 88.5% | 96.4% | 65.7% |
| Nc1cc(C(F)(F)F)c(-c2cc(N3CCOCC3)nc(N3CCOCC3)n2)cn1 [Buparlisib] | 3.23 | 2.39 | 1.54 | 3.29 | 6.14 | 1.39 | 3 | 0 | 6.3 | 10 | 0 |  |  |  |  |  |  |  |  |  |  |  |  |  |  |  |  |  |  |
| CNC(=O)c1ccc(N2C(=S)N(c3ccc(C#N)c(C(F)(F)F)c3)C(=O)C2(C)C)cc1F [Enzalutamide] | 0 | 0 | 0 | 0 | 0 | 0 | 0 | 0.159 | 0 | 0 | 0 |  |  |  |  |  |  |  |  |  |  |  |  |  |  |  |  |  |  |
| CCOC(=O)CCNc1cc(N2CCc3ccccc3CC2)nc(-c2ccccn2)n1 [GSK-J4] | 12.1 | 10.7 | 13.5 | 12 | 10.5 | 10.4 | 14 | 17 | 19.9 | 12.5 | 10.7 |  |  |  |  |  |  |  |  |  |  |  |  |  |  |  |  |  |  |
| Cc1cc(Nc2cc(CN3CCOCC3)c3nc(C)c(Cc4ccc(Cl)cc4F)n3n2)n[nH]1 [Gandotinib] | 6.22 | 3.77 | 0.384 | 1.28 | 5.01 | 6.39 | 7.43 | 0 | 9.64 | 5.57 | 3.64 |  |  |  |  |  |  |  |  |  |  |  |  |  |  |  |  |  |  |
| CCc1c2c(nc3ccc(OC(=O)N4CCC(N5CCCCC5)CC4)cc13)-c1cc3c(c(=O)n1C2)COC(=O)[C@]3(O)CC [Irinotecan] | 1.83 | 2.72 | 4.98 | 0 | 0 | 0 | 0 | 0 | 7.12 | 0 | 4.28 | 110% and 106% | 91.5% and 90% |  | 86% and 102% | 99.2% and 118% | 90.9% and 99.3% | 115% and 123% | 89.1% and 112% |  | 93.2% and 84.8% | 102% and 126% | 97.9% and 90.4% | 90.9% and 103% | 89.2% and 99.7% | 102% and 115% | 102% and 108% | 93.8% and 94.5% | 80.2% and 85.2% |
| COC(=O)c1ccc2c(c1)NC(=O)/C2=C(\Nc1ccc(N(C)C(=O)CN2CCN(C)CC2)cc1)c1ccccc1 [Nintedanib] | 5.02 | 3.62 | 0 | 3.95 | 6.77 | 1.11 | 6.66 | 1.67 | 5.28 | 7.98 | 0 |  |  |  |  |  |  |  |  |  |  |  |  |  |  |  |  |  |  |
| CNC(=O)c1ccc(N2C(=S)N(c3ccc(C#N)c(C(F)(F)F)c3)C(=O)C23CCC3)cc1F [RD162] | 3.77e-05 | 0 | 0 | 0 | 0 | 0 | 0 | 0 | 0 | 0 | 0 |  |  |  |  |  |  |  |  |  |  |  |  |  |  |  |  |  |  |
| COc1cc2c(NC3CCN(C(C)C)CC3)nc(N3CCC(F)(F)CC3)nc2cc1OCCCN1CCCC1 [UNC0642] | 1.75 | 0 | 0 | 1.97 | 0.93 | 0 | 3.72 | 5.58 | 7.75 | 3.31 | 2.71 |  |  |  |  |  |  |  |  |  |  |  |  |  |  |  |  |  |  |
